Laboratory results as given in ChEMBL document CHEMBL1137960, “Miraziridine A: natures blueprint towards protease class-spanning inhibitors” (Bioorg Med Chem Lett, 2004).
Non-standard residues stand in square brackets, D forms with d. Residues, ends and D or L forms follow the SMILES beside them. ξ: configuration not given here. *: point of attachment. Sta = CC(C)C[C@H](N)[C@@H](O)CC(=O)O; X1 = CC(=O)c1cn(*)c2ccccc12; Isovaleryl = CC(C)CC(=O)*; ξIva = CCC(C)(N)C(=O)O

Experiments:
[1] = target: Cathepsin B (Homo sapiens) (UniProt P07858); test: Second order rate constant for cathepsin B
[2] = target: Procathepsin L (Homo sapiens) (UniProt P07711); test: Second order rate constant for cathepsin L
Procathepsin L (Homo sapiens), sequence (P07711 114-333 limits assumed): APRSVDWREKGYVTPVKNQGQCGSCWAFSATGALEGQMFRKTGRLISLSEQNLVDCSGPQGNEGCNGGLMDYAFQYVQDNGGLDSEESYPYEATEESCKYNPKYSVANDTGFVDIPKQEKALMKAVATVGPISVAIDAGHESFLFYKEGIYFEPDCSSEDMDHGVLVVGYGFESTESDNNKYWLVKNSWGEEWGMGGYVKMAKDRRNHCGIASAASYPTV

Pepsin A = Pepsin A (Sus scrofa, UniProt P00791); test: (§1) Inhibitory activity against aspartyl protease pepsin
Pepsin A, sequence (P00791 whole entry): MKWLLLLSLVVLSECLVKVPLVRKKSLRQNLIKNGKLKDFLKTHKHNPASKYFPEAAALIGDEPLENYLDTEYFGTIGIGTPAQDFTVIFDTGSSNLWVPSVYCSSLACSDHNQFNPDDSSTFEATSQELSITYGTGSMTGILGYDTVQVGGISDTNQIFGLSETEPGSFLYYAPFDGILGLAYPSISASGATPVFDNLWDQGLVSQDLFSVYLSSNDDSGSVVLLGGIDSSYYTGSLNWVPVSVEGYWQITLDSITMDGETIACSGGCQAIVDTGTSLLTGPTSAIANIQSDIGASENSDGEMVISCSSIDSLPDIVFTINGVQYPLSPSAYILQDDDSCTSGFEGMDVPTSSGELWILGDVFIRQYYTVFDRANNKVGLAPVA

[3] = target: Serine protease 1 (Homo sapiens) (UniProt P07477); test: Inhibitory activity against serine protease trypsin
Serine protease 1 (Homo sapiens), sequence (P07477 whole entry): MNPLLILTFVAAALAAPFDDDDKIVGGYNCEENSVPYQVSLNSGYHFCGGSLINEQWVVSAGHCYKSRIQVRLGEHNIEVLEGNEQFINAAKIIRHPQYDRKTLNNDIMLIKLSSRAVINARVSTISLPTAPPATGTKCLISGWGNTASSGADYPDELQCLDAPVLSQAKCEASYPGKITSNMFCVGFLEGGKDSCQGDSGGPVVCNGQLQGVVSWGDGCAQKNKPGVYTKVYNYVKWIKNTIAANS

[4] = target: Cathepsin B (Homo sapiens) (UniProt P07858); test: Inhibitory activity against cysteine protease cathepsin B
[5] = target: Procathepsin L (Homo sapiens) (UniProt P07711); test: Inhibitory activity against cysteine protease cathepsin L
Pepsin A (Sus scrofa) = Pepsin A (Sus scrofa) (UniProt P00791); test: as §1
Pepsin A (Sus scrofa), sequence (P00791 60-385 limits assumed): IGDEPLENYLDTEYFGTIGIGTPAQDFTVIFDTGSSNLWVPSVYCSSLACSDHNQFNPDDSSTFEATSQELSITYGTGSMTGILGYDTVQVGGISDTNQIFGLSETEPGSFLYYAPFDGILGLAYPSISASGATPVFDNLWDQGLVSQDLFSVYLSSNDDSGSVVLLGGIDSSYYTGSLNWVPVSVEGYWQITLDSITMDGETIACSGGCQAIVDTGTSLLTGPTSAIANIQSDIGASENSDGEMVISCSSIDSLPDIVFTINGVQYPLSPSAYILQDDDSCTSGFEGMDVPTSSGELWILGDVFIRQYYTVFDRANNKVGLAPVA

CC(C)CCNC(=O)[C@H](CC(C)C)NC(=O)[C@@H]1N[C@H]1C(=O)O
k2/Ki [1]: 17000 M⁻¹ s⁻¹ | k2/Ki [2]: 120000 M⁻¹ s⁻¹

CCC(C)(N)C(=O)N[C@H](C(=O)N[C@@H](CC(C)C)[C@@H](O)CC(=O)N[C@@H](C)C(=O)n1cc(C(C)=O)c2ccccc21)C(C)C (some centres undefined) (H-[ξIva]V[Sta]A-X1)
Ki (Pepsin A): 3 nM

CC(C)CC(=O)N[C@H](C(=O)N[C@H](C(=O)N[C@@H](CC(C)C)[C@@H](O)CC(=O)N[C@@H](C)C(=O)N[C@@H](CC(C)C)[C@@H](O)CC(=O)O)C(C)C)C(C)C (Isovaleryl-VV[Sta]A[Sta]-OH)
Ki (Pepsin A): 0.046 nM

CC[C@H](NC(=O)C[C@H](O)[C@H](CC(C)C)NC(=O)[C@H](CC(C)C)NC(=O)[C@@H]1N[C@H]1C(=O)O)C(=O)N[C@H](/C=C/C(=O)O)CCCN=C(N)N [MIRAZIRIDINE A]
Affinity [3]: 60 µM | Ki (Pepsin A): 14 nM | Affinity [4]: 15000 M⁻¹ s⁻¹ | Affinity [5]: 1e+06 M⁻¹ s⁻¹ | Affinity (Pepsin A (Sus scrofa)): 14 nM
